Data set [1] in a line: Solubility of FF-MAS in water, ethanol and ethanol/water. Type of data set: physicochemical. The procedure: The solubility of a preferred MAS, i.e., FF-MAS, in water is very low, i.e., approximately 20 picogram/ml (corresponding to 2×10^−5 μg/ml). […] According to our preliminary investigations, the highest solubility of FF-MAS in a mixture of ethanol and water (1:2.5) is approximately 0.4 mg/ml. Several other MASs have a similar low solubility in water.

Data set [2] concerns oocytes obtained from immature female mice. In words: Germinal vesicle breakdown (GVB) test on mouse oocytes. The class given is cell-based. The protocol:
Oocytes were obtained from immature female mice (C57BL/6J×DBA/2J F1, Bomholtgaard, Denmark) weighing 13–16 grams, that were kept under controlled temperature (20–22° C.), light (lights on 06.00–18.00) and relative humidity (50–70%). The mice received an intraperitoneal injection of 0.2 ml gonadotropins (Gonal-F, Serono) containing 20 IU FSH and 48 hours later the animals were killed by cervical dislocation. The ovaries were dissected out and the oocytes were isolated in Hx-medium (see below) under a stereo microscope by manual rupture of the follicles using a pair of 27 gauge needles. Spherical oocytes displaying an intact germinal vesicle (hereinafter designated GV) were divided in cumulus enclosed oocytes (hereinafter designated CEO) and naked oocytes (hereinafter designated NO) and placed in α-minimum essential medium (α-MEM without ribonucleosides, Gibco BRL, Cat. No. 22561) supplemented with 3 mg/ml bovine serum albumin (BSA, Sigma Cat. No. A-7030), 5 mg/ml human serum albumin (HSA, State Serum Institute, Denmark), 0.23 mM pyruvate (Sigma, Cat. No S-8636), 2 mM glutamine (Flow Cat. No. 16-801), 100 IU/ml penicillin and 100 μg/ml streptomycin (Flow, Cat No. 16-700). This medium was supplemented with 3 mM hypoxanthine (Sigma Cat. No. H-9377) and designated Hx-medium.
The oocytes were rinsed three times in Hx-medium and oocytes of uniform size were divided into groups of CEO and NO. CEO and NO were cultured in 4-well multidishes (Nunclon, Denmark) in which each well contained 0.4 ml of Hx-medium and the compound to be tested in a concentration of 10 μM. One control well (i.e., 35–45 oocytes cultured in identical medium with no addition of test compound) was always cultured simultaneously with 3 test wells (35–45 oocytes per well supplemented with test compound).
The oocytes were cultured in a humidified atmosphere of 5% CO2 in air for 24 hours at 37° C. By the end of the culture period, the number of oocytes with GV, GVB and polar bodies (hereinafter designated PB), respectively, were counted using a stereo microscope (Wildt, Leica MZ 12). The percentage of GVB, defined as percentage of oocytes undergoing GVB per total number of oocytes in that well, was calculated as: % GVB=((number of GVB+number of PB)/total number of oocytes)×100.
FF-MAS was dissolved in ethanol (25 μg FF-MAS/ml ethanol). HSA is dissolved in water (1%). 100 μl of the above mentioned ethanol solution (corresponding to the amount of FF-MAS needed for one treatment) and 350 μl of the above-mentioned HSA solution were mixed in a glass vial. The resulting mixture of FF-MAS and HSA was evaporated to dryness by airflow of argon. After the liquid was evaporated, the vial was sealed by a rubber septum and the vial was placed at a temperature of 2–8° C. At the time for usage, 500 μl of freshly prepared IVM media was added to the residue in the vial and shaken calmly for 1–2 minutes. The IVM media used was TCM 199 with Earle's salts (Sigma) to which was added 0.8% HSA, 2 mM L-glutamine, 0.25 mM sodium pyrovate, 100 IU/ml penicillin G, and 100 microgram/ml streptomycin. The liquid was transferred to a 4-well dish and the composition was tested on oocytes obtained from immature female mice. Percentage GVB obtained, see below in Table 1.
FF-MAS was dissolved in ethanol (20 μg FF-MAS/ml ethanol) and HSA was dissolved in water (1%). 100 μl of the above mentioned ethanol solution (corresponding to the amount of FF-MAS needed for one treatment) and 250 μl of the above-mentioned HSA solution were mixed and 350 μl of the combined liquid was aliquoted in a glass vials. The vials were placed at −80° C. for one night. All samples were thereafter freeze-dried at −45° C. for 16 hours followed by 8 hours freeze drying at −15° C. and 8 hours freeze drying at +25° C. Before the freeze dryer was opened all vials were automatically sealed with rubber septums by a pressure of nitrogen. The vials were closed with a capsule and placed at a temperature of 2–8° C. […]

SMILES strings stand for the structures. Values after ≈ are worked out from the molar mass of the structure shown. Read-outs that look alike come from different tables or passages of the source.

The solubility is how much of the substance goes into solution per volume.

Regarding `CC(C)=CCC[C@@H](C)[C@H]1CC=C2C3=C(CC[C@@]21C)[C@@]1(C)CC[C@H](O)C(C)(C)[C@@H]1CC3` [FF-MAS, 4,4-dimethyl-5α-cholesta-8,14,24-triene-3β-ol], the solubility in data set [1] (ethanol/water (1:2.5), aqueous with cosolvent or surfactant or cyclodextrin, ethanol and water (1:2.5), preliminary investigations, read-out: highest solubility of FF-MAS in a mixture of ethanol and water) was about 400 µg/mL (≈ 0.974 mM); in data set [1] (organic solvent or mixture, in ethanol, read-out: solubility of FF-MAS in ethanol) it was about 12000 µg/mL (≈ 29.2 mM). In data set [1] (in water), the “solubility of FF-MAS in water” value is on record as “approximately 20 picogram/ml”. Also, the “% GVB” value in data set [2] (Dose FF-MAS 0.24 μmol/l, in combination with HSA 6 mg/ml, Example 3) was determined as 86%; in data set [2] (Dose FF-MAS 0.48 μmol/l, in combination with HSA 6 mg/ml, Example 3), 88%; in data set [2] (Dose FF-MAS 1.2 μmol/l, in combination with HSA 6 mg/ml, Example 3), 91%; in data set [2] (Dose FF-MAS 2.4 μmol/l, in combination with HSA 6 mg/ml, Example 3) it was 97%; in data set [2] (Dose FF-MAS 10 μmol/l, internal control dissolved in ethanol, Example 3), 43%; in data set [2] (Dose FF-MAS 10 μmol/l, internal control dissolved in ethanol, Example 4, first test), 85%. In addition, the “% GVB” value in data set [2] (Dose FF-MAS 10 μmol/l, internal control dissolved in ethanol, Example 4, second test) stood at 83%; in data set [2] (Dose FF-MAS 10 μmol/l, internal control dissolved in ethanol, Example 8, 5 tests), 85%.

The values are drawn from US6988613B2, “Composition for IVF” (Novo Nordisk A/S, priority 2001, dated 2006).
